One assay has as its system C57BI/6 mice. The assay is described as follows: Dark-light box test after 14 days of drinking water. It is filed as in vivo. Conditions: three-months-old male mice; water ad libitum 14 days; Diazepam 2.5 mg/kg bolus 30 min prior the test; mean±SEM. The procedure: Bolus injection of anxiolytic drug Diazepam (2.5 mg/kg, 30 min prior the test) was used as a positive reference control.

For the next assay, the system named is C57BI/6J mice. The experiment in a line: Sucrose preference test (anhedonia) under chronic stress. It is filed as in vivo. Conditions: young adult male mice; water one week before and during ten days of chronic stress; 10th day; Citalopram 15 mg/kg per day per os; mean±SEM. The procedure:
Citalopram 15 mg/kg per day per os was used as the reference antidepressant drug. There was no difference between groups at baseline. At 10th day of the stress procedure, animals were tested on the sucrose preference, common test for assessment of anhedonia. Results are presented in Table 6 as mean±SEM percent of sucrose preference.

In the case of `CN1C(=O)CN=C(c2ccccc2)c2cc(Cl)ccc21` [Diazepam], the “Time (time spent in the lit box)” value with C57BI/6 mice was determined as 155.2 ± 7.8 s.
For `CN(C)CCCC1(c2ccc(F)cc2)OCc2cc(C#N)ccc21` (centres unmarked) [Citalopram], the Sucrose preference in the assay with C57BI/6J mice is on record as 70.0 ± 3.0 %.

These data come from US20130142883A1, “MEDICAL FOOD FOR THE DIETARY MANAGEMENT OF DEPRESSION AND ANXIETY AND METHODS THEREOF” (priority 2011, published 2013).
